Source: ChEMBL document CHEMBL2390906, “Synthetic chalcones and sulfonamides as new classes of Yersinia enterocolitica YopH tyrosine phosphatase inhibitors” (Eur J Med Chem, 2013)

How the values were obtained:
[1] = target: T1, Tyrosine-protein phosphatase YopH (Yersinia enterocolitica, UniProt P15273); assay: Inhibition of Yersinia enterocolitica recombinant YopH using pNPP as substrate after 10 mins by spectrophotometry
[2] = target: Tyrosine-protein phosphatase YopH (Yersinia enterocolitica) (UniProt P15273); assay: Inhibition of Yersinia enterocolitica recombinant YopH using pNPP as substrate at 25 uM after 10 mins by spectrophotometry
Tyrosine-protein phosphatase YopH (Yersinia enterocolitica), sequence (P15273 whole entry): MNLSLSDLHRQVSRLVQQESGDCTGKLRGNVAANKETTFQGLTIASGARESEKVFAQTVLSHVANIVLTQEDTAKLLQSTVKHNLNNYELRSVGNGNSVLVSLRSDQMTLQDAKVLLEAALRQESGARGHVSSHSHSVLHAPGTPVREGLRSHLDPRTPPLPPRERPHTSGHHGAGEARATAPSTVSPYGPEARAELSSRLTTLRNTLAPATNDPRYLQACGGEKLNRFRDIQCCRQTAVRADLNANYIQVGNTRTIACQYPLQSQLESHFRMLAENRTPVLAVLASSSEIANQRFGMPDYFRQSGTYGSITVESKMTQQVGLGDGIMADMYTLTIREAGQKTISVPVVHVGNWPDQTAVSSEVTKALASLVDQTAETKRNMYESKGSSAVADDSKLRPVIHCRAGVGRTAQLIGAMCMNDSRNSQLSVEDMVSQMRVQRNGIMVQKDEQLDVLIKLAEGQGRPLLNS

[3] = target: T1, Tyrosine-protein phosphatase YopH; assay: Competitive inhibition of Yersinia enterocolitica recombinant YopH using pNPP as substrate after 10 mins by Line-weaver Burk plot analysis
[4] = target: T1, Tyrosine-protein phosphatase YopH; assay: Noncompetitive inhibition of Yersinia enterocolitica recombinant YopH using pNPP as substrate after 10 mins by Line-weaver Burk plot analysis

T1 sequence (P15273 whole entry): as above

O=C(/C=C/c1ccc(-c2cc(C(F)(F)F)ccc2Cl)o1)c1ccc2c(c1)OCO2 gave an IC50 [1] of 38.6 µM, an inhibition [2] of 33.8% and a Ki [3] of 11.1 µM.
For O=C(/C=C/c1ccccc1)c1ccc2ccccc2c1, the IC50 [1] was 246 µM and the inhibition [2] was 30.9%.
For O=C(/C=C/c1ccc2c(c1)OCO2)c1cccc([N+](=O)[O-])c1, the IC50 [1] was 9.9 µM, the inhibition [2] was 31.3% and the Ki [3] was 4.5 µM.
In the case of CC12C=CC(O1)[C@H]1C(=O)N(c3ccc(S(=O)(=O)N/N=C/c4ccc(Cl)c(Cl)c4)cc3)C(=O)[C@H]12 (stereo not given in full), the IC50 [1] is reported as 62.2 µM and the inhibition [2] is reported as 45.6%.
In the case of O=C(/C=C/c1cccc2ccccc12)c1ccc2ccccc2c1, the IC50 [1] is reported as 193 µM and the inhibition [2] is reported as 26.5%.
O=C(/C=C/c1ccc2c(c1)OCO2)c1ccc([N+](=O)[O-])cc1 showed an IC50 [1] of 15.1 µM, an inhibition [2] of 65.7% and a Ki [3] of 4.4 µM.
Work on O=C1c2cccc3c(Cl)ccc(c23)C(=O)N1Cc1ccc(S(=O)(=O)N2CCOCC2)cc1 yielded an IC50 [1] of 15.5 µM, a Ki [4] of 36 µM and an inhibition [2] of 82.1%.
O=C1[C@@H]2C3C=CC(O3)[C@@H]2C(=O)N1c1ccc(S(=O)(=O)N2CCCC2)cc1 gave an IC50 [1] of 9 µM, an inhibition [2] of 76.4% and a Ki [3] of 4.4 µM.
COc1ccc2nc(Cl)c(/C=C/C(=O)c3ccc4ccccc4c3)cc2c1 showed an IC50 [1] of 268 µM and an inhibition [2] of 34.6%.
O=C(/C=C/c1cccc([N+](=O)[O-])c1)c1ccc2ccccc2c1 gave an IC50 [1] of 122 µM and an inhibition [2] of 34.7%.
Molecule O=C(/C=C/c1cc2ccccc2nc1Cl)c1ccc2c(c1)OCO2 has an IC50 [1] of 117 µM and an inhibition [2] of 44.2%.
Molecule O=C(/C=C/c1ccc2ccccc2c1)c1ccc2ccccc2c1 has an IC50 [1] of 20.3 µM, an inhibition [2] of 66.9% and a Ki [3] of 14.1 µM.
